# Laboratory results taken from article PMC12656268, “Venom Peptides Across Asian and American Tarantulas Utilize Dual Pharmacology to Target Activation and Fast Inactivation of Voltage-Gated Sodium Channels” (Toxins, 2025).
# Positions of bridges follow the written chain, without caps; N, C: chain ends. Residues, ends and D or L forms follow the SMILES beside them.
# Experiments:
# NaV1.7 = test: Voltage dependence of steady-state inactivation and activation, NaV1.7; assay type: cell-based, human
# Procedure: The voltage dependence of steady-state activation was assessed by recording sodium currents evoked by depolarizing voltage steps ranging from −110 mV to +80 mV in 5 mV increments. Peak conductance (GNa) was derived using the equation G = I/(V − Vrev), where I denotes the measured current, V the applied membrane potential, and Vrev the sodium reversal potential. To evaluate the voltage dependence of steady-state fast inactivation, a two-pulse protocol was used. Cells were conditioned with 500 ms pre-pulses at potentials between −130 mV and −10 mV (10 mV increments), followed by a 20 ms test depolarization to 0 mV to elicit sodium currents. The steady-state fast inactivation currents were plotted as I/Imax, where I = current value and Imax = highest current value within the experiment. The voltage-dependence of steady-state activation and inactivation were determined either in the absence of peptide or following 5 min exposure to peptide at the respective IC50 concentration at the NaV subtype analyzed to streamline the investigation using an effective single concentration as previously described by us.
# (§1) For calcium influx experiments, bioactivity comparisons between venom fractions and controls were based on the difference between the maximal and minimal fluorescence intensity values obtained from single-replicate assays. Electrophysiological data analysis was conducted using GraphPad Prism (version 8; GraphPad Software, San Diego, CA, USA). Nonlinear regression was applied to fit the concentration–response relationships using a variable Hill slope: log(inhibitor) versus normalized response for determining IC50 values, and log(agonist) versus normalized response for EC50 calculations. Reversibility and dissociation kinetics were analyzed by fitting data with a single-phase exponential decay model, while voltage-dependence of steady-state activation and inactivation parameters were derived from Boltzmann sigmoid fits of normalized conductance (G/Gmax) or current (I/Imax) values to determine the half-activation or half-inactivation voltages (V50). Data are expressed as mean ± SEM, where n represents the number of individual cells analyzed.
# hNaV1.1 to hNaV1.7 = test: NaV subtype preference across NaV1.1 to NaV1.7, patch clamp; assay type: cell-based, human; conditions: NaV1.1 to NaV1.7, closed-state voltage protocol
# Procedure: (§2) Unless otherwise specified, all cell culture reagents were obtained from Life Technologies (Carlsbad, CA, USA). The human neuroblastoma cell line SH-SY5Y (ATCC CRL-2266; Manassas, VA, USA) was maintained in RPMI medium supplemented with 15% fetal bovine serum (FBS) and 2 mM L-glutamine. HEK293 cells stably expressing human NaV channel isoforms together with the β1 auxiliary subunit (SB Drug Discovery, Glasgow, UK) were propagated in Minimal Essential Medium (MEM; Sigma-Aldrich, St. Louis, MO, USA) containing 10% FBS, 100 U/mL penicillin, 100 µg/mL streptomycin, 2 mM L-glutamine, and selective antibiotics (blasticidin, geneticin, and zeocin) at concentrations recommended by the supplier. HEK293T cells expressing the human CaV3.2 channel (a generous gift from Prof. Emmanuel Bourinet, Institut de Génomique Fonctionnelle, Université de Montpellier, France, and Prof. Edward Perez-Reyes, University of Virginia School of Medicine, USA) were grown in Dulbecco’s MEM supplemented with 10% FBS, 100 U/mL penicillin, 100 µg/mL streptomycin, and 750 µg/mL geneticin.
# Sodium channel currents were recorded from HEK293 cells expressing human NaV isoforms together with the β1 auxiliary subunit (SB Drug Discovery, Glasgow, UK) using the QPatch 16X automated whole-cell patch-clamp platform (Sophion Bioscience A/S, Ballerup, Denmark). The external recording solution contained (in mM) the following: 140 NaCl, 3 KCl, 1 CaCl2, 1 MgCl2, 0.1 CdCl2, 20 tetraethylammonium chloride (TEA-Cl), and 5 HEPES; pH was adjusted to 7.3 and osmolarity to 320 mOsm. The internal (pipette) solution consisted of (in mM) the following: 140 CsF, 10 NaCl, 10 HEPES, and 1/5 EGTA/CsOH, also adjusted to pH 7.3 and 320 mOsm. […] For determining the potency of Oa1a peptides to inhibit peak current, the maximum peak current within the 20 ms at 0 mV was measured. For determining the potency of Oa1a-NH2 to slow fast inactivation, peak current values were measured at 20 ms of the 0 mV depolarization step. […]
# as §1, with “Electrophysiological data analysis was conducted using GraphPad Prism (version 8; GraphPad Software, San Diego, CA, USA). Nonlinear regression was applied to fit the concentration–response relationships using a variable Hill slope: log(inhibitor) versus normalized response for determining IC50 values, and log(agonist) versus normalized response for EC50 calculations.” left out
# hNaV1.2 = hNaV1.2 (Homo sapiens, UniProt Q99250); test: hNaV1.2 peak current inhibition, automated whole-cell patch clamp (QPatch 16X); assay type: cell-based
# Sequence of hNaV1.2 (Q99250 whole entry): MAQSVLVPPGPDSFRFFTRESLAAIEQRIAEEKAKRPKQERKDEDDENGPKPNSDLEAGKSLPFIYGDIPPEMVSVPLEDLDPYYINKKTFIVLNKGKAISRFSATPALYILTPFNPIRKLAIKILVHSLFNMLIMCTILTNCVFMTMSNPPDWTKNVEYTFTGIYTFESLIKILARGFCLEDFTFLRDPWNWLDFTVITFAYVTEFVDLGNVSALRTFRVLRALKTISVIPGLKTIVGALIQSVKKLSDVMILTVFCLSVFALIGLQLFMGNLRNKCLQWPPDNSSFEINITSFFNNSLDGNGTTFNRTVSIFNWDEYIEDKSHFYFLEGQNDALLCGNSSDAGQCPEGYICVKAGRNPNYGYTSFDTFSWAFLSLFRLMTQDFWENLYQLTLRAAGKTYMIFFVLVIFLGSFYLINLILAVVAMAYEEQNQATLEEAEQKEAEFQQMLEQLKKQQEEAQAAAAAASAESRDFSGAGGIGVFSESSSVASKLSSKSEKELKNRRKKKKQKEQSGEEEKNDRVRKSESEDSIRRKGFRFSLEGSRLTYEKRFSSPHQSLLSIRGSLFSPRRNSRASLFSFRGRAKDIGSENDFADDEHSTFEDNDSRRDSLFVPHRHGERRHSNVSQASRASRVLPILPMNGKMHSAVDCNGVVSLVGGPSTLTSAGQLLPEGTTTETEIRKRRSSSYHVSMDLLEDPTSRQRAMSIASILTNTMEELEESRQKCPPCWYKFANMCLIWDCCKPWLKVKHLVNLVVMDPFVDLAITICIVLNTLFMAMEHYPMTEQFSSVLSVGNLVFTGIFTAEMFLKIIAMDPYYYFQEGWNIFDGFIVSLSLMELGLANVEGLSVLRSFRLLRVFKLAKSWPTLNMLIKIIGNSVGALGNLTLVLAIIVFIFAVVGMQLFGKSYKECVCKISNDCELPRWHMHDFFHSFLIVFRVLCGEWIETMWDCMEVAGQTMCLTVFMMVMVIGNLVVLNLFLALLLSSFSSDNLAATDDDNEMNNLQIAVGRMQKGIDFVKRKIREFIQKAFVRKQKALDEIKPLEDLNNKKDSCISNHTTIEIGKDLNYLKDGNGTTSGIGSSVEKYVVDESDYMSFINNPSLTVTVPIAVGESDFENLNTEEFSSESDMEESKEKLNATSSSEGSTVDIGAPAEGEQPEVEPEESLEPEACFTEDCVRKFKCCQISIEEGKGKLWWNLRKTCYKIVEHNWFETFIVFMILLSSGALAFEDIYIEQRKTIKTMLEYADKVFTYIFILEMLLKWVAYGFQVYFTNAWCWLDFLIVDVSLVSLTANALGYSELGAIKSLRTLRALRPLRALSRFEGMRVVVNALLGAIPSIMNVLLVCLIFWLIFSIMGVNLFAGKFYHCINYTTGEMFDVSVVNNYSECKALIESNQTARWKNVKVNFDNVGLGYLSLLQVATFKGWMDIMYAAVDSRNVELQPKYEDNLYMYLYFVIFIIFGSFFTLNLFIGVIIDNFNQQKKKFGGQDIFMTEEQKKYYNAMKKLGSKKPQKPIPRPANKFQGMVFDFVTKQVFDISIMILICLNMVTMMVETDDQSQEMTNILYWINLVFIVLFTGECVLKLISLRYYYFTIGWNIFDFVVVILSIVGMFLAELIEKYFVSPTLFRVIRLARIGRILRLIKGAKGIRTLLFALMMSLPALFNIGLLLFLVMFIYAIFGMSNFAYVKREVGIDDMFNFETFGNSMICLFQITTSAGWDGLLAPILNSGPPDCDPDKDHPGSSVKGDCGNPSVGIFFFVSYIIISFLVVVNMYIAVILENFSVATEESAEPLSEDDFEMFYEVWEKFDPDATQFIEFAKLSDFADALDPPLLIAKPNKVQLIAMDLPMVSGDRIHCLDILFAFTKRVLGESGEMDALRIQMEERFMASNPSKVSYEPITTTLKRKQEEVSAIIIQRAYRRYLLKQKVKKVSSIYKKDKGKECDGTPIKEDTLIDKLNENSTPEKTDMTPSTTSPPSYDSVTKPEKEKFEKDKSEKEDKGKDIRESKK
# Sequence of hNaV1.2 (Q07699 19-218, further chain): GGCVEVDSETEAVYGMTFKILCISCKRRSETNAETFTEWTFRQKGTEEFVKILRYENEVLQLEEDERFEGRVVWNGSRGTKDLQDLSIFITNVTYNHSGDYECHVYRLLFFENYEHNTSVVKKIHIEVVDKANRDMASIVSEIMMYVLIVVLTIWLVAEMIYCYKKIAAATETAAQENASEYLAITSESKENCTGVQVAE
# Procedure: as §2, with “HEK293T cells expressing the human CaV3.2 channel (a generous gift from Prof. Emmanuel Bourinet, Institut de Génomique Fonctionnelle, Université de Montpellier, France, and Prof. Edward Perez-Reyes, University of Virginia School of Medicine, USA) were grown in Dulbecco’s MEM supplemented with 10% FBS, 100 U/mL penicillin, 100 µg/mL streptomycin, and 750 µg/mL geneticin.” left out
# (§3) Sodium channel currents were recorded from HEK293 cells expressing human NaV isoforms together with the β1 auxiliary subunit (SB Drug Discovery, Glasgow, UK) using the QPatch 16X automated whole-cell patch-clamp platform (Sophion Bioscience A/S, Ballerup, Denmark). […] For determining the potency of Oa1a peptides to inhibit peak current, the maximum peak current within the 20 ms at 0 mV was measured. For determining the potency of Oa1a-NH2 to slow fast inactivation, peak current values were measured at 20 ms of the 0 mV depolarization step. […]
# as §1, with “Electrophysiological data analysis was conducted using GraphPad Prism (version 8; GraphPad Software, San Diego, CA, USA). Nonlinear regression was applied to fit the concentration–response relationships using a variable Hill slope: log(inhibitor) versus normalized response for determining IC50 values, and log(agonist) versus normalized response for EC50 calculations.” left out
# NaV1.1 = NaV1.1 (Homo sapiens, UniProt P35498); test: Off-rate / reversibility on NaV1.1, patch clamp with saline washes; assay type: cell-based
# Procedure: For off-rate measurements, cells at a holding potential −80 mV were incubated with peptide for 10 min at a concentration equivalent to 10 times their IC50 for the NaV subtype being analyzed, followed by saline washes. Na^+ currents were assessed every 10 s utilizing a holding potential −80 mV and currents elicited by 20 ms voltage step to 0 mV from a −120 mV conditioning pulse applied for 200 ms. Ion currents (INa) plotted as I/Imax, where I = current value and Imax = highest current value within the experiment.
# as §1
# NaV1.3 = NaV1.3 (Homo sapiens, UniProt Q9NY46); test: Slowing of fast inactivation of NaV1.3; assay type: cell-based; conditions: closed-state voltage protocol, current traces; concentrations up to those of IC50 curves
# Procedure: Sodium channel currents were recorded from HEK293 cells expressing human NaV isoforms together with the β1 auxiliary subunit (SB Drug Discovery, Glasgow, UK) using the QPatch 16X automated whole-cell patch-clamp platform (Sophion Bioscience A/S, Ballerup, Denmark). The external recording solution contained (in mM) the following: 140 NaCl, 3 KCl, 1 CaCl2, 1 MgCl2, 0.1 CdCl2, 20 tetraethylammonium chloride (TEA-Cl), and 5 HEPES; pH was adjusted to 7.3 and osmolarity to 320 mOsm. The internal (pipette) solution consisted of (in mM) the following: 140 CsF, 10 NaCl, 10 HEPES, and 1/5 EGTA/CsOH, also adjusted to pH 7.3 and 320 mOsm. Cells were voltage-clamped at a holding potential of −80 mV, and inward Na^+ currents were evoked by 20 ms depolarizing pulses to 0 mV following a 200 ms hyperpolarizing prepulse to −120 mV. To obtain concentration–response curves, cells at holding potential were incubated for 5 min with increasing concentrations of Oa1a peptides. For determining the potency of Oa1a peptides to inhibit peak current, the maximum peak current within the 20 ms at 0 mV was measured. For determining the potency of Oa1a-NH2 to slow fast inactivation, peak current values were measured at 20 ms of the 0 mV depolarization step. Ion currents (INa) were plotted as I/Imax, where I = current value and Imax = highest current value within the experiment.
# as §1
# hNaV1.6 = hNaV1.6 (Homo sapiens, UniProt Q9UQD0); test: hNaV1.6 peak current inhibition, automated whole-cell patch clamp (QPatch 16X); assay type: cell-based
# Sequence of hNaV1.6 (Q9UQD0 whole entry): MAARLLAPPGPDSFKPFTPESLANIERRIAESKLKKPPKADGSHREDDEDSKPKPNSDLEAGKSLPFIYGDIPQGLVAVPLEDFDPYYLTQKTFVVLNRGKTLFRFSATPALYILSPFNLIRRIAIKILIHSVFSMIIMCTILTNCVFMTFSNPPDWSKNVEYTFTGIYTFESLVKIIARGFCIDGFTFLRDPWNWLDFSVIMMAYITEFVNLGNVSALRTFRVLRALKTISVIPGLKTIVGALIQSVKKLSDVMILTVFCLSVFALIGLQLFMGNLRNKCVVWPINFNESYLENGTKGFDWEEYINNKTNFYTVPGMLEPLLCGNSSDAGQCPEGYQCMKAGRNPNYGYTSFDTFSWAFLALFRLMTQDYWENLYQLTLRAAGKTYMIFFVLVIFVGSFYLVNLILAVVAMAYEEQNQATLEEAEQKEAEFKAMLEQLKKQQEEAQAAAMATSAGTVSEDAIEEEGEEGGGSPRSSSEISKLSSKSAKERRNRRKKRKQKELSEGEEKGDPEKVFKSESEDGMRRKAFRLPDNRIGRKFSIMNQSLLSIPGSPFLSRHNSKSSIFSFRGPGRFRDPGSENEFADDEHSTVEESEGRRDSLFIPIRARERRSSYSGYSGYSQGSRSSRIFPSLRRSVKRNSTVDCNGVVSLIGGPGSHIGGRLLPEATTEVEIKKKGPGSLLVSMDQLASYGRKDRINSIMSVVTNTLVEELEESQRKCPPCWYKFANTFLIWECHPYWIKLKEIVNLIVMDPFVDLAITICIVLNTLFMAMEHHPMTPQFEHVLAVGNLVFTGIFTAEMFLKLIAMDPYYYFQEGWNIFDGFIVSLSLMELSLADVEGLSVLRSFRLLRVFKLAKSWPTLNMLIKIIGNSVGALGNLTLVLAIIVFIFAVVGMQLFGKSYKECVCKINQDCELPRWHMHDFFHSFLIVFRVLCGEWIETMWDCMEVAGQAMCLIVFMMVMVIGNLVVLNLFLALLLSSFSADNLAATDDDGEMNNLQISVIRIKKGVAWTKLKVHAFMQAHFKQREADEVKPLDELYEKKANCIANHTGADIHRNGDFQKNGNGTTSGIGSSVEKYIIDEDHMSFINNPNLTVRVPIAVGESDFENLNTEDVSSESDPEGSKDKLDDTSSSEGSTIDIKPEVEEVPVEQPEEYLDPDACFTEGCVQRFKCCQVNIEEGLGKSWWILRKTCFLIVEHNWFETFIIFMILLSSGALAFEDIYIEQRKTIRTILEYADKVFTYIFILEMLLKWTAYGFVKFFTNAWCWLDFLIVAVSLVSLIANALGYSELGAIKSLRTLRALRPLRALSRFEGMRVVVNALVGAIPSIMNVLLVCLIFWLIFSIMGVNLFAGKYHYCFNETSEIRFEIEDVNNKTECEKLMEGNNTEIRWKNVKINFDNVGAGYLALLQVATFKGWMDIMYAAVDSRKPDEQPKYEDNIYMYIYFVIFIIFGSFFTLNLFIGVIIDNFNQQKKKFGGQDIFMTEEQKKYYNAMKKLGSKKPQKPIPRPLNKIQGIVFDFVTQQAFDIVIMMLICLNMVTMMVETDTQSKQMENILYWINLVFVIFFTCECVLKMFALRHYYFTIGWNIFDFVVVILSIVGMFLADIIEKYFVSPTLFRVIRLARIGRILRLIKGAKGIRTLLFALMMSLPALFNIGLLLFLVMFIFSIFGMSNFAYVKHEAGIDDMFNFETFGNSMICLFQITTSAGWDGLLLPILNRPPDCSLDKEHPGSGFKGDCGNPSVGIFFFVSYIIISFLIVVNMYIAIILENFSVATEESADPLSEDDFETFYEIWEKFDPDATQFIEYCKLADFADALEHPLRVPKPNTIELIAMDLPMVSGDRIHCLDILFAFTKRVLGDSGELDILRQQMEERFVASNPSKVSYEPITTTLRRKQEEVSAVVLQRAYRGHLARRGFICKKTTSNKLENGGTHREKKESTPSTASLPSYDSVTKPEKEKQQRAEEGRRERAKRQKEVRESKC
# Sequence of hNaV1.6 (Q07699 19-218, further chain): as the sequence (Q07699 19-218, further chain) above
# Procedure: as §2, with “HEK293T cells expressing the human CaV3.2 channel (a generous gift from Prof. Emmanuel Bourinet, Institut de Génomique Fonctionnelle, Université de Montpellier, France, and Prof. Edward Perez-Reyes, University of Virginia School of Medicine, USA) were grown in Dulbecco’s MEM supplemented with 10% FBS, 100 U/mL penicillin, 100 µg/mL streptomycin, and 750 µg/mL geneticin.” left out
# as §3
# as §1, with “Electrophysiological data analysis was conducted using GraphPad Prism (version 8; GraphPad Software, San Diego, CA, USA). Nonlinear regression was applied to fit the concentration–response relationships using a variable Hill slope: log(inhibitor) versus normalized response for determining IC50 values, and log(agonist) versus normalized response for EC50 calculations.” left out
smiles,measurement,setting,value
"CC(C)C[C@@H]1NC(=O)[C@H](Cc2ccccc2)NC(=O)[C@H](Cc2ccc(O)cc2)NC(=O)[C@H](CCCNC(=N)N)NC(=O)[C@@H](NC(=O)[C@@H](N)CCC(=O)O)CSSC[C@@H]2NC(=O)[C@@H]3CSSC[C@@H](C(=O)N[C@H](C(=O)N[C@@H](Cc4c[nH]c5ccccc45)C(=O)N[C@@H](CC(=O)O)C(=O)N[C@@H](Cc4c[nH]c5ccccc45)C(=O)N[C@H](C(=O)N[C@@H](Cc4ccccc4)C(=O)O)[C@@H](C)O)C(C)C)NC(=O)[C@H](Cc4c[nH]c5ccccc45)NC(=O)[C@H](CCC(N)=O)NC(=O)[C@H](Cc4c[nH]cn4)NC(=O)[C@H](CCCCN)NC(=O)[C@H](CC(N)=O)NC(=O)[C@H](Cc4c[nH]cn4)NC(=O)[C@H](CSSC[C@H](NC(=O)CNC(=O)CNC1=O)C(=O)N[C@@H](CO)C(=O)N[C@@H](CCC(N)=O)C(=O)NCC(=O)N[C@@H](CCC(=O)O)C(=O)N[C@@H](CCCCN)C(=O)N3)NC(=O)[C@H](C(C)C)NC(=O)[C@H](CC(C)C)NC(=O)[C@H](Cc1c[nH]cn1)NC(=O)[C@H](CCC(=O)O)NC2=O [sOa1a-OH] (H-ECRYFLGGCSQGEKCCEHLVCHNKHQWCVWDWTF-OH; disulfide 2-16, 9-21, 15-28; N-terminus assumed)","V50 of steady-state activation in presence of peptide, NaV1.7","NaV1.7; control V50 = −28 ± 0.5 mV (sOa1a-NH2 experiment), −25 ± 0.7 mV (sOa1a-OH experiment), 5 min at IC50 concentration, mean ± SEM, 3 to 5 repeats",−22 mV
same,"V50 of steady-state inactivation in presence of peptide, NaV1.7","NaV1.7; control V50 = −66 ± 0.7 mV (sOa1a-NH2 experiment), −66 ± 0.3 mV (sOa1a-OH experiment), 5 min at IC50 concentration, mean ± SEM, 3 to 5 repeats",−71 mV
same,"Effect on current–voltage relationships (activation, steady-state inactivation), NaV1.7",NaV1.7; peptide at IC50 concentration,remained nearly unaltered
same,NaV subtype preference of inhibition (in words),hNaV1.1 to hNaV1.7,strong preference for inhibiting NaV1.1
same,IC50,"hNaV1.2; HEK293 + β1, holding −80 mV, 20 ms step to 0 mV from −120 mV 200 ms prepulse, 5 min incubation, mean ± SEM, 3 to 9 independent experiments, read-out: IC50, inhibition of peak current, NaV1.2",> 3 µM
same,Activity on NaV1.2 (in words),hNaV1.2; tested at up to 3 μM,no activity
same,"95% CI of off-rate (dissociation time), NaV1.1","NaV1.1; peptide at 10× IC50 for 10 min, then saline washes, 95% CI, 3 to 5 independent repeats",Off-rate 3.56 min (95% CI = 3.35 to 3.80 min)
same,Reversibility on NaV1.1 by washing,"NaV1.1; peptide at 10× IC50 for NaV1.1, then washing",completely reversed by washing
same,Slowing of fast inactivation of NaV1.3 (in words),NaV1.3,this dual modulatory activity was not observed
same,IC50,"hNaV1.6; HEK293 + β1, holding −80 mV, 20 ms step to 0 mV from −120 mV 200 ms prepulse, 5 min incubation, mean ± SEM, 3 to 9 independent experiments, read-out: IC50, inhibition of peak current, NaV1.6",0.568 ± 0.038 µM
same,"Ratio OH/NH2 (IC50 sOa1a-OH / IC50 sOa1a-NH2), NaV1.6",hNaV1.6; ratio of IC50 values,2.6
